Results from PMC11459959, “Discovery of new acetamide derivatives of 5-indole-1,3,4-oxadiazol-2-thiol as inhibitors of HIV-1 Tat-mediated viral transcription” (Antimicrobial Agents and Chemotherapy, 2024).
Like-named read-outs stand apart in the source and are kept apart here.

How the values were obtained:
Format in all cases: cell-based
[1] = Cell viability of A3.01 cells; settings: human
Method: The p24 level from the cell supernatant was subsequently determined using a p24 […] kit (PerkinElmer). In parallel, the cell viability was determined without viral infection because of the viral cytopathic effect. […] In parallel, cell viability was determined. The data (A and B) are presented as the mean ± SD (n = 3). (C) PBMCs (4 × 10^5) infected with HIV-AD8 at an MOI of 0.1 were treated with 1.5 µM of the compounds or ARVs for 3 days. The levels of p24 and cell viability were subsequently determined. (D) J1.1 cells were cultured with the compounds ([…]) under 50 ng/mL phorbol myristate acetate (PMA) treatment for 2 days. The level of p24 was subsequently determined. (E) J-Lat 6.3 cells were treated with the compounds (1.5 µM) under 1 µg/mL of PMA for 2 days. The GFP-positive cell population was analyzed using flow cytometry. The data are represented as a value relative to the DMSO-treated vehicle (D) and a percent of the GFP^+ cell population (E) as mean ± SD (n = 3).
The inhibitory effects of the compounds on viral replication were determined with some minor modifications, as previously described ([12], [62]). […] PBMCs (4 × 10^5) pre-activated with PHA-M for 3 days were washed with fresh media to remove excess PHA-M and subsequently infected with HIV-1NL4-3 or HIV-1AD8 or PIs-resistant HIV-1 strains as A3.01 infection. After infection, the infectious media were replaced with fresh media supplemented with international 10 units (IU)/mL of IL-2 and the indicated compounds. At 72 h after infection, the inhibitory effect of the compounds on viral replication was determined by measuring the p24 amount, an HIV capsid protein, using an HIV-1 p24 […] kit (PerkinElmer, Waltham, MA, USA). Cell viability was determined as described above. The inhibitory effects on provirus reversing in J1.1 and J-Lat 6.3 cells were determined as previously described ([12], [41], [63]) with some minor modifications. Briefly, 5 × 10^4 persistently HIV-1-infected J1.1 or J-Lat 6.3 cells were cultured in either the presence or absence of the compounds at a final concentration of 1.5 µM and treated with PMA (50 ng/mL for J1.1 cells, 1 µg/mL for J-Lat 6.3 cells). Two days after treatment, the levels of viral production were determined using p24 […] for J1.1 cells and flow cytometry analysis for GFP-expressing J-Lat 6.3 cells.

[2] = Cell viability of TZM-bl cells (PrestoBlue); settings: human
[3] = test system: HIV-1NL4-3; test: Time-of-addition assay in TZM-bl cells; settings: HIV-1NL4-3 MOI 1, 9 and 13 1.5 μM, T-20 1 µM, triptolide 5 nM, ARVs 1 µM, F-Luc at 54 h
Method: Fig 5 (A) Time-of-addition assay. […] Subsequently, the cells were treated with the compounds at the indicated time points (0, 1, 2, 4, 6, 8, 10, 12, 24, 30, 36, 42, and 48 h) after HIV-1 infection. The final concentrations of compounds are described in Materials and Methods. Viral activity according to the timing of drug addition was measured as F-Luc activity at 54 h after infection. The relative activities are represented as the mean ± SD (n = 3) compared with the activity observed 54 h post-infection. The relative time frames associated with each HIV-1 infection step are defined based on the time frame of susceptibility to the drug that blocks that particular infection step. […] At 16 h after infection, the viral reverse transcription (RT) product (viral cDNA) level was determined by quantitative real-time PCR (RT-qPCR) using gag and 18S rRNA primer sets and represented as the mean ± SD (n = 3) normalized against the amount of the 18S rRNA compared with the DMSO control. **P < 0.01 compared with the vehicle (DMSO). (C) An in vitro integrase (IN) assay was performed with 10 µM of the indicated compounds following the manufacturer’s protocol. **P < 0.01 compared with vehicle (DMSO). (D) A3.01 cells were infected with HIV-1 upon treatment with the indicated compounds (5 µM) and ARVs (EFV and DTG) as the experimental controls. At 40 h after infection, cellular chromosomal DNA was purified, and the integrated proviral DNA was detected through nested Alu-PCR amplification.
A time-of-addition assay was performed as previously described ([25]) with minor modifications. […] Reference drug and test compounds were subsequently added at the indicated time (0, 1, 2, 4, 6, 8, 10, 12, 24, 30, 36, 42, and 48 h after infection). Final concentrations were as follows: compounds 9 and 13 (1.5 μM), T-20 (1 µM), Triptolide (5 nM), and ARVs (AZT, EFV, DTG, RAL) (1 µM). The viral activity according to the timing of drug addition was measured using a Bright Glo luciferase assay kit (Promega). Virus activity curves present a % activity relative to the activity observed at 54 h after infection, and the data are presented as the mean ± standard deviation (SD) (n = 3). The relative time frame associated with each HIV-1 infection step was defined based on the sensitivity to each drug that blocks a particular infection step.

[4] = A3.01 cells, absence of HIV-1 infection, mean ± SD, read-out: CC50

Row | Structure (SMILES) | CC50 at 3 days [1] | CC50 at 48 h [2] | time of administration after infection at which effectiveness began to decrease / was lost [3] | CC50 at 3 days [1, 4] | CC50 at 48 h ([2]; TZM-bl cells, absence of HIV-1 infection, mean ± SD, read-out: CC50)
1 | Cc1[nH]c2ccc(-c3nnc(SCC(=O)N4CCCC4)o3)cc2c1C [Compound 13, 2-((5-(2,3-Dimethyl-1H-indol-5-yl)-1,3,4-oxadiazol-2-yl)thio)-1-(pyrrolidin-1-yl)ethan-1-one] | 47.6 ± 1.88 µM | 47.1 ± 7.72 µM | 24 h |  | 
2 | Cc1[nH]c2ccc(-c3nnc(SCC(=O)N4CCCCC4)o3)cc2c1C [Compound 9, 2-((5-(2,3-Dimethyl-1H-indol-5-yl)-1,3,4-oxadiazol-2-yl)thio)-1-(piperidin-1-yl)ethan-1-one] | 56.1 ± 4.48 µM | 63.2 ± 5.94 µM | 24 h |  | 
3 | CC(C)[C@]12O[C@H]1[C@@H]1O[C@]13[C@]1(O[C@H]1C[C@H]1C4=C(CC[C@@]13C)C(=O)OC4)[C@@H]2O [triptolide, reference compound] |  |  | 24 h | 0.22 ± 0.04 µM | 0.02 µM
4 | C[C@@H]1CCO[C@H]2Cn3cc(C(=O)NCc4ccc(F)cc4F)c(=O)c(O)c3C(=O)N12 [DTG, dolutegravir, reference compound] | 7.67 ± 0.61 µM |  | 10 h |  | 
5 | O=C1Nc2ccc(Cl)cc2[C@@](C#CC2CC2)(C(F)(F)F)O1 [EFV, efavirenz, reference compound] |  |  | 8 h | 22.7 ± 1.65 µM | 
